{
  "source": "patent US20110046724A1",
  "about": "“Expansible Biocompatible Coats Comprising a Biologically Active Substance” (Avidal Vascular GMBH, priority 2008, published 2011)",
  "key": {"[1]": {"system": "human endothelial progenitor cells (EPC)", "experiment": "short-term application of paclitaxel to human endothelial progenitor cells", "format": "cell-based", "conditions": "effect dose and time dependent", "from_the_text": "(§1) This effect is dose and time dependent; rising concentrations in paclitaxel and longer application show higher inhibition of cell proliferation and migration."}, "[2]": {"system": "smooth muscle cells (SCM)", "experiment": "short-term application of paclitaxel to smooth muscle cells", "format": "cell-based, human", "conditions": "effect dose and time dependent", "from_the_text": "as §1"}},
  "data": [
    {"smiles": "CC(=O)O[C@H]1C(=O)[C@@]2(C)[C@H]([C@H](OC(=O)c3ccccc3)[C@]3(O)C[C@H](OC(=O)[C@H](O)[C@@H](NC(=O)c4ccccc4)c4ccccc4)C(C)=C1C3(C)C)[C@]1(OC(C)=O)CO[C@@H]1C[C@@H]2O", "note": "[paclitaxel]", "values": [
      {"measurement": "apoptosis, inhibition of cell proliferation and migration", "setting": "[1]", "result": "leads to apoptosis and therefore inhibition of cell proliferation and migration"},
      {"measurement": "apoptosis, inhibition of cell proliferation and migration", "setting": "[2]", "result": "leads to apoptosis and therefore inhibition of cell proliferation and migration"}
    ]}
  ]
}
